# Data: patent publication US5599789A, “Method for the treatment of tumours and sarcomas” (Amrad Corporation Limited, priority 1991, dated 1997)
# “Also recorded” adds a separate entry of the source.
# Experiments:
# [1] = test system: Ewing's Sarcoma cell line Al-8; assay: Colony formation in semi-solid agar cultures, Al-8 cells; type: cell-based, human; settings: Al-8, 1,000 cells, day 18
# Protocol: (§1) Tumour cells obtained from biopsy and bone marrow specimens from patients with Ewing's Sarcoma were used in these studies. Approval for this project has been obtained from the Ethics Committee of the Royal Children's Hospital.
# (§2) Single cell suspensions of tumour cells were obtained by mechanical disruption with an 18G or 21G needle or by pipetting, followed by incubation with dispase II (Boehringer) at a concentration of 1.2 units per ml for 10 minutes at 37° C. Prior to the addition to agar-medium the cells were vortexed gently to prevent clumping.
# (§3) Clonal cell lines were grown in Iscove's Modified Dulbecco's Medium (IMDM) supplemented with 10% v/v foetal calf serum (FCS; CSL Limited, Melbourne, Australia) and were passaged either weekly or twice weekly. The characteristics of the Ewing Sarcoma cell lines used herein as described below:
# (§4) Cell lines derived from the above primary cell lines (Al and Cu) are identified by an Arabic numeral (e.g. Al-1, Al-5, Al-8 or Cu-1).
# (§5) The tumour cells were immobilised in 0.3% w/v agar containing Iscove's Modified Dulbecco's Medium (IMDM) and 10% v/v FCS. […] Cultures were scored for the presence of colonies (>40 cells) or clusters (<40 cells). The number of cells plated per culture ranged from 500 to 10,000 per ml. Colonies were counted on an Olympus dissecting microscope.
# (§6) IL-1, IL-3, IL-4, IL-6, M-CSF, G-CSF, GM-CSF, Stem Cell Factor (SCF), TNFα, TGFα, TGFβ, EGF, aFGF, bFGF, NGF, IGF I, IGF II, PDGF and IFN-γ.
# (§7) The recombinant human leukaemia inhibitory factor (LIF) was obtained from AMRAD Corporation Limited, Melbourne, Australia.
# [2] = test system: Ewing's Sarcoma cell line Al-1; assay: Colony formation in semi-solid agar cultures, Al-1 cells; type: cell-based, human; settings: day 18
# Protocol: as §1, §2, §3, §4, §5, §6, §7
# [3] = test system: Ewing's sarcoma cells from cell line Al-5; assay: Clonogenicity in agar after LIF pretreatment in suspension culture; type: cell-based, human
# Protocol: Ewing's sarcoma cells from cell line Al-5 in suspension cultures were incubated for seven days in the presence or absence of 100 ng/ml LIF prior to inoculation of replicate agar plates with 5×10^3 cells per ml which were then incubated for a further 18 days before colonies were scored. In all cases, the frequency of colonies obtained from LIF-pretreated cells was 35-55% lower compared to control cells.
# [4] = Toxicity of hLIF in mice, daily subcutaneous injections; type: in vivo
# Protocol: A number of preliminary experiments were performed to determine the appropriate daily dose of hLIF in mice. Mice were injected with high doses of hLIF (100 microgram per mouse). These studies led to death of the mice within 2 weeks of daily subcutaneous injections of LIF. Studies using lower doses (5-20 micrograms per mouse) of hLIF, led to survival of most of the mice for over 20 days. Retro-orbital bleeds were performed on the first 3 days to determine platelet counts. In all mice subcutaneously injected daily with 1 microgram or more of hLIF, the platelet count rose in the first 3 days (26-60% increment on baseline pretreatment levels). In this study an amount of 20 μg of hLIF was chosen to be subcutaneously injected daily into SCID mice bearing Ewing's Sarcoma tumours.
# [5] = test system: Ewing's sarcoma cells (cell line A1-5) xenograft; assay: Ewing's tumour growth in SCID mice (subcutaneous xenograft); type: in vivo; settings: for Histology of subcutaneous tumours / Mitotic figures in tumours: hLIF 20 μg/day, 18 days; for Histology of subcutaneous tumours: Haematoxylin and Eosin; for Mitotic figures in tumours: histology
# From the text: Scid mice were obtained from the Animal Resource Centre, Willetton, Western Austarlia. All mice were aged 5-8 weeks, and were the same sex (male). Severe immunodeficiency (scid) is an autosomal recessive mutation that occurred spontaneously in the CB 17 (CB-IgH-1^b (N17F34)) congenic strain (16). In this congenic strain, the inbred BALB/c strain carried the immunoglobulin heavy-chain allele (Igh-I^b) of the C57BL/Ka strain. The SCID locus has been mapped to the centromeric end of chromosome 16 (16). These mice have defective T and B cell immunity, thus allowing for engraftment of many foreign cells. The mice were maintained in a laminar flow unit. In order to reduce the mortality from infection, the mice were kept in previously autoclaved cages, and autoclaved food and acidified water was used.
# Recombinant human LIF (hLIF) derived from E. coli (Lot 122, AMRAD Corporation Limited) was used. Recombinant mouse LIF (Lot 308, AMRAD Corporation Limited) and PBS/1% w/v BSA were used as controls for the in vivo injections.
# 5-8×10^6 cloned Ewing's sarcoma cells (cell line A1-5), were injected subcutaneously into SCID mice. Tumours were scored after about 3 weeks in almost all mice at the injection site.
# To examine the effect of heterologous and homologous LIF relative to the mammal being treated, a double blind controlled study was performed using tumour bearing SCID mice that were injected with hLIF (20 μg per mouse), mouse LIF (100 ng per mouse), or PBS/1% w/v BSA. The effective amount of hLIF was required to be higher than mLIF due to the presence of high circulating levels of a hLIF binding protein in mice (17). Eight mice were injected in each group with the majority of mice in the hLIF group surviving over 2 weeks (range 15-31 days). Tumour size was assessed using calibrated calibers, with measurements in the depth, length and width of the tumours. […] The trend for smaller tumours in hLIF treated mice was evident prior to the wasting syndrome. Although not wishing to limit the present invention to any one hypothesis as to mode of action, this phenomenon may be a manifestation of LIF toxicity in mice. In most cases, this trend was noticeable within 7 days after hLIF injections.
# Histological examination of the subcutaneous tumours was performed on all mice, as was a full necropsy.
# [6] = hLIF 20 μg per mouse daily s.c.
substance,measurement,setting,value
LIF: recombinant human leukaemia inhibitory factor (E. coli derived) from AMRAD Corporation Limited,Colonies/Cultures,[1]; stimulus 0.01 ng,68
same,Colonies/Cultures,[1]; stimulus 0.1 ng,29
same,Colonies/Cultures,[1]; stimulus 1 ng,23
same,Colonies/Cultures,[1]; stimulus 10 ng,6
same,Colonies/Cultures,"[1]; stimulus 100 ng, mean of duplicate colony counts",3
same,Colonies/Cultures,"[2]; Al-1, 1,000 cells, stimulus 0.01 ng",50
same,Colonies/Cultures,"[2]; Al-1, 1,000 cells, stimulus 0.1 ng",39
same,Colonies/Cultures,"[2]; Al-1, 1,000 cells, stimulus 1 ng",23
same,Colonies/Cultures,"[2]; Al-1, 1,000 cells, stimulus 10 ng",24
same,Colonies/Cultures,"[2]; Al-1, 1,000 cells, stimulus 100 ng, mean of duplicate colony counts",32
same,Colonies/Cultures,"[2]; Al-1, 10,000 cells, stimulus 0.01 ng",695
same,Colonies/Cultures,"[2]; Al-1, 10,000 cells, stimulus 0.1 ng",305
same,Colonies/Cultures,"[2]; Al-1, 10,000 cells, stimulus 1 ng",129
same,Colonies/Cultures,"[2]; Al-1, 10,000 cells, stimulus 10 ng",17
same,Colonies/Cultures,"[2]; Al-1, 10,000 cells, stimulus 100 ng, mean of duplicate colony counts",18
same,"Frequency of colonies from LIF-pretreated cells, lower compared to control cells","[3]; Al-5, 100 ng/ml LIF for seven days in suspension, then agar 5×10^3 cells per ml, 18 days, three experiments",35-55%
same,Proportion of large colonies in LIF stimulated agar cultures,[3]; pretreatment with LIF in suspension cultures for 7-14 days,further reduced
same,"Platelet count rise, increment on baseline pretreatment levels","[4]; 1 microgram or more daily subcutaneously, first 3 days",26-60%
same,Survival of most of the mice,[4]; 5-20 micrograms per mouse,over 20 days
same,Time to death of the mice,"[4]; 100 microgram per mouse, daily subcutaneous injections",≤ 2 weeks
same,Time until trend for smaller tumours was noticeable,"[5]; after hLIF injections, 20 μg per mouse, in most cases",≤ 7 days
same,Survival of the majority of mice,[5]; [6],over 2 weeks
same,Tumour size compared to PBS controls,[5]; [6],significantly reduced in size; also recorded: significantly smaller
same,Survival range of tumour bearing mice,"[5]; hLIF 20 μg per mouse daily s.c., eight mice",15 to 31 days
same,Histology of subcutaneous tumours,[5],mainly composed of necrotic areas with only a small percentage of the tumour being made up of viable cells
same,Histology of subcutaneous tumours,[5]; listed as human LIF,"regressive, nectrotic tumour cells; also recorded: necrotic, regressive tumour cells"
same,Mitotic figures in tumours,[5],almost no mitotic figures
same,Mitotic figures in tumours,[5]; listed as human LIF,lack of mitotic figures
same,Viable areas of tumours,"[5]; hLIF treated, microscopic examination",< 20%
